What follows are compounds tested against T1, human GPR139 receptor (Homo sapiens, UniProt Q6DWJ6) (assay: Measurement of GPR139 Activation Via Calcium Signaling (FLIPR, T-REx-CHO cells)). Conditions: T-REx-CHO cells stably expressing human GPR139, 11-point dose response, 10 μM maximum concentration, read-out: GPR139 Potency (pEC50) (converted).
T1 construct: expressed in transfected cells; host or cells: T-REx-CHO (Thermo Fisher Scientific), doxycycline-induced
T1 sequence (Q6DWJ6 1-353): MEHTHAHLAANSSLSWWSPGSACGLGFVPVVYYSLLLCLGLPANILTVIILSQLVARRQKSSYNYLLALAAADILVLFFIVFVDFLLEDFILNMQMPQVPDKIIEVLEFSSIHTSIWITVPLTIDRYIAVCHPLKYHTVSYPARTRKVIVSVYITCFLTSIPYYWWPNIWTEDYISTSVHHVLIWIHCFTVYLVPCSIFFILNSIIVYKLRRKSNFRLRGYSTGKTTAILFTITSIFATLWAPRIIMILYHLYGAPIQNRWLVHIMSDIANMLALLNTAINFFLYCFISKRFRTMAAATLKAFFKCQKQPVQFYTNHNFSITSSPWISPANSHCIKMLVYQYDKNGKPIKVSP
Assay type: cell-based
Protocol: Measurement of GPR139 Activation Via Calcium Signaling
This cell-based assay measures the ability of compounds to activate GPR139 in stably transfected T-REx™-CHO cells. T-REx™-CHO cells (Thermo Fisher Scientific®) are stably expressed with human GPR139 receptor, whose expression is controlled by a tetracycline-inducible element. The cells are cultured in medium containing F-12K nutrient mixture-Kaighn's modification, TripleLE™ Express (1×)-phenol red, Dulbecco's phosphate-buffered saline (1×), 10% tetracycline-free FBS, Blasticidin S HCl (10 μg/mL) and Hygromycin B (200 μg/mL). The cells are introduced into the wells of a 384-well black clear bottom plate (Costar®) at 10,000 cells/well. GPR139 receptor expression is induced with 2 μg/mL doxycycline (Sigma D9891). The plate is allowed to stand at room temperature for 10-30 minutes and then incubated at 37° C. and 5% CO2 for 17 hours prior to assay.
Culture media is removed from cells and 45 μL of 1× calcium dye (2.5 mM) is added to each well and incubated at 37° C. and 5% CO2 for 40 minutes. The plate is removed from the incubator and allowed to stand at RT for 20 minutes without a plate cover prior to measurement of calcium signaling. The calcium dye is prepared by adding 10 mL of assay buffer (Hank's Balanced Salt Solution (1×), 1 mM HEPES at pH 7.4) to one vial of calcium dye (FLIPR® Calcium 5 Assay Kit; Molecular Devices) at room temperature, vortexing the mixture until homogenous, and transferring the dye to a 250 mL flask using 10 mL of assay, buffer to rinse the vial. The dye is subsequently transferred to a conical flask, which is filled to the 200 mL mark with assay buffer, and 1 mL of […] probenecid solution (142.68 mg/mL in 1M NaOH aq) is added.
Example compounds suspended in DMSO are received from compound management in microtiter plates (0.25 μL/well) and are diluted in assay buffer (25 μL). Following incubation of the cell plate, the Example compounds are added to the cells (11-point dose response, 10 μM maximum concentration) using a FLIPR® Tetra system (Molecular Devices) and fluorescence is measured continuously for 1 minute. EC50 curves are generated with a four-parameter logistic equation using GraphPad Prism® 6, and activation of GPR139 for each example compound is reported as pEC50.

Compound	EC50
COc1ccc([C@H](C)NC(=O)Cn2nc(C)c3cnn(C(C)(C)C)c3c2=O)cc1 [Example 9, (S)-2-(1-(tert-butyl)-4-methyl-7-oxo-1,7-dihydro-6H-pyrazolo[3,4-d]pyridazin-6-yl)-N-(1-(4-methoxyphenyl)ethyl)acetamide]	0.0955 µM
Cc1ccc([C@H](C)NC(=O)Cn2ncc3c(c(C)nn3C(C)C)c2=O)cc1 [Example 46, (S)-2-(1-isopropyl-3-methyl-4-oxo-1,4-dihydro-5H-pyrazolo[3,4-d]pyridazin-5-yl)-N-(1-(p-tolyl)ethyl)acetamide]	0.0776 µM
Cc1nn(CC(=O)N[C@@H](C)c2ccc(OC(F)(F)F)cc2)c(=O)c2cnn(C(C)C)c12 [Example 76, (S)-2-(1-isopropyl-7-methyl-4-oxo-1,4-dihydro-5H-pyrazolo[3,4-d]pyridazin-5-yl)-N-(1-(4-(trifluoromethoxy)phenyl)ethyl)acetamide]	1.02 µM
Cc1ccc([C@H](C)NC(=O)Cn2nc(C)c3c(cnn3C(C)C)c2=O)cc1 [Example 77, (S)-2-(1-isopropyl-7-methyl-4-oxo-1,4-dihydro-5H-pyrazolo[3,4-d]pyridazin-5-yl)-N-(1-(p-tolyl)ethyl)acetamide]	0.0912 µM
Cc1nn(CC(=O)N[C@@H](C)c2ccc(C(F)(F)F)cc2)c(=O)c2cnn(C3CC3)c12 [Example 78, (S)-2-(1-cyclopropyl-7-methyl-4-oxo-1,4-dihydro-5H-pyrazolo[3,4-d]pyridazin-5-yl)-N-(1-(4-(trifluoromethyl)phenyl)ethyl)acetamide]	0.0794 µM
Cc1nn(CC(=O)N[C@@H](C)c2ccc(OC(F)(F)F)cc2)c(=O)c2cnn(C3CC3)c12 [Example 79, (S)-2-(1-cyclopropyl-7-methyl-4-oxo-1,4-dihydro-5/1-pyrazolo[3,4-d]pyridazin-5-yl)-N-(1-(4-(trifluoromethoxy)phenyl)ethyl)acetamide]	0.257 µM
Cc1ccc([C@H](C)NC(=O)Cn2nc(C)c3c(cnn3C(C)C)c2=O)c(F)c1 [Example 83, (S)—N-(1-(2-fluoro-4-methylphenyl)ethyl)-2-(1-isopropyl-7-methyl-4-oxo-1,4-dihydro-5H-pyrazolo[3,4-d]pyridazin-5-yl)acetamide]	0.0933 µM
Cn1nc(C2CC2)c2c(=O)n(CC(=O)N3CCCC3c3ccc(Cl)cc3)ncc21 (stereo not drawn) [Example 84, 5-(2-(2-(4-chlorophenyl)pyrrolidin-1-yl)-2-oxoethyl)-3-cyclopropyl-1-methyl-1,5-dihydro-4H-pyrazolo[3,4-d]pyridazin-4-one]	0.407 µM
CC(C)n1ncc2c(=O)n(CC(=O)N[C@@H](C)c3ccc(C(F)(F)F)cc3)ncc21 [Example 86, (S)-2-(1-isopropyl-4-oxo-1,4-dihydro-5H-pyrazolo[3,4-d]pyridazin-5-yl)-N-(1-(4-(trifluoromethyl)phenyl)ethyl)acetamide]	0.0832 µM
CC(C)n1ncc2c(=O)n(CC(=O)N[C@@H](C)c3ccc(OC(F)(F)F)cc3)ncc21 [Example 87, (S)-2-(1-isopropyl-4-oxo-1,4-dihydro-5H-pyrazolo[3,4-d]pyridazin-5-yl)-N-(1-(4-(trifluoromethoxy)phenyl)ethyl)acetamide]	0.126 µM
Cc1ccc([C@H](C)NC(=O)Cn2ncc3c(cnn3C3CC3)c2=O)c(F)c1 [Example 90, (S)-2-(1-cyclopropyl-4-oxo-1,4-dihydro-5H-pyrazolo[3,4-d]pyridazin-5-yl)-N-(1-(2-fluoro-4-methylphenyl)ethyl)acetamide]	0.0589 µM
Cc1ccc([C@H](C)NC(=O)Cn2ncc3c(cnn3C3CC3)c2=O)cc1 [Example 91, (S)-2-(1-cyclopropyl-4-oxo-1,4-dihydro-5H-pyrazolo[3,4-d]pyridazin-5-yl)-N-(1-(p-tolyl)ethyl)acetamide]	0.0589 µM
Cc1ccc([C@H](C)NC(=O)Cn2ncc3c(c(C4CC4)nn3C(C)C)c2=O)c(F)c1 [Example 95, (S)-2-(3-cyclopropyl-1-isopropyl-4-oxo-1,4-dihydro-5H-pyrazolo[3,4-d]pyridazin-5-yl)-N-(1-(2-fluoro-4-methylphenyl)ethyl)acetamide]	0.117 µM
CC(C)n1nc(C2CC2)c2c(=O)n(CC(=O)N[C@@H](C)c3ccc(OC(F)(F)F)cc3)ncc21 [Example 96, (S)-2-(3-cyclopropyl-1-isopropyl-4-oxo-1,4-dihydro-5H-pyrazolo[3,4-d]pyridazin-5-yl)-N-(1-(4-(trifluoromethoxy)phenyl)ethyl)acetamide]	0.501 µM
Cc1ccc([C@H](C)NC(=O)Cn2ncc3c(c(C4CC4)nn3C(C)C)c2=O)cc1 [Example 97, (S)-2-(3-cyclopropyl-1-isopropyl-4-oxo-1,4-dihydro-5H-pyrazolo[3,4-d]pyridazin-5-yl)-N-(1-(p-tolyl)ethyl)acetamide]	0.049 µM
CC(C)n1nc(C2CC2)c2c(=O)n(CC(=O)N[C@@H](C)c3ccc(C(F)(F)F)cc3)ncc21 [Example 98, (S)-2-(3-cyclopropyl-1-isopropyl-4-oxo-1,4-dihydro-5H-pyrazolo[3,4-d]pyridazin-5-yl)-N-(1-(4-(trifluoromethyl)phenyl)ethyl)acetamide]	0.275 µM
Cc1nn(C(C)C)c2c(C)nn(CC(=O)N[C@@H](C)c3ccc(OC(F)(F)F)cc3)c(=O)c12 [Example 100, (S)-2-(1-isopropyl-3,7-dimethyl-4-oxo-1,4-dihydro-5H-pyrazolo[3,4-d]pyridazin-5-yl)-N-(1-(4-(trifluoromethoxy)phenyl)ethyl)acetamide]	0.363 µM
Cc1nn(C2CC2)c2cnn(CC(=O)N[C@@H](C)c3ccc(OC(F)(F)F)cc3)c(=O)c12 [Example 109, (S)-2-(1-cyclopropyl-3-methyl-4-oxo-1,4-dihydro-5H-pyrazolo[3,4-d]pyridazin-5-yl)-N-(1-(4-(trifluoromethoxy)phenyl)ethyl)acetamide]	0.282 µM

From patent US12370192B2, “Azole-fused pyridazin-3(2H)-one derivatives” (TAKEDA PHARMACEUTICAL COMPANY LIMITED, priority 2019, dated 2025)
